The OligoGym collection
HELM strings list units from the 5' end as sugar, base in round brackets, then linkage (d deoxyribose, r ribose, m 2'-O-methyl, p phosphodiester). Strings are as the collection lists them; they lack the last nucleoside at the 3' end of the tested compound. [moe] = 2'-O-(2-methoxyethyl) (MOE); [sp] = phosphorothioate linkage; [m5C] = 5-methylcytosine

Molecular target: APP
Experiment: mouse, dose not given
Conditions: ASO

Substance | 3 h FOB score
RNA1{[moe](A)[sp].[moe]([m5C])p.[moe](T)p.[moe](G)p.[moe](A)[sp].d(T)[sp].d(T)[sp].d(A)[sp].d(T)[sp].d([m5C])[sp].d(A)[sp].d(A)[sp].d(A)[sp].d(T)[sp].d(T)[sp].[moe]([m5C])p.[moe]([m5C])p.[moe](G)[sp].[moe](G)}$$$$ (last 3' nucleoside missing) | 0.25 score 0-7
RNA1{[moe](A)[sp].[moe]([m5C])p.[moe](T)p.[moe](T)p.[moe](A)[sp].d([m5C])[sp].d(A)[sp].d(A)[sp].d(A)[sp].d([m5C])[sp].d(T)[sp].d([m5C])[sp].d(A)[sp].d([m5C])[sp].d([m5C])[sp].[moe](A)p.[moe](A)p.[moe]([m5C])[sp].[moe](T)}$$$$ (last 3' nucleoside missing) | 1 score 0-7
RNA1{[moe](A)[sp].[moe]([m5C])p.[moe](T)p.[moe](T)p.[moe]([m5C])[sp].d(T)[sp].d(A)[sp].d([m5C])[sp].d(T)[sp].d(A)[sp].d([m5C])[sp].d(T)[sp].d(T)[sp].d(T)[sp].d(G)[sp].[moe](T)p.[moe]([m5C])p.[moe](T)[sp].[moe](T)}$$$$ (last 3' nucleoside missing) | 1.5 score 0-7
RNA1{[moe](A)[sp].[moe]([m5C])p.[moe](T)p.[moe]([m5C])p.[moe](A)[sp].d([m5C])[sp].d(A)[sp].d([m5C])[sp].d(A)[sp].d([m5C])[sp].d(T)[sp].d(G)[sp].d(T)[sp].d(T)[sp].d(T)[sp].[moe]([m5C])p.[moe](A)p.[moe](A)[sp].[moe](G)}$$$$ (last 3' nucleoside missing) | 2.67 score 0-7
RNA1{[moe](A)[sp].[moe]([m5C])p.[moe](T)p.[moe]([m5C])p.[moe](G)[sp].d(A)[sp].d(A)[sp].d([m5C])[sp].d([m5C])[sp].d(A)[sp].d([m5C])[sp].d([m5C])[sp].d(T)[sp].d([m5C])[sp].d(T)[sp].[moe](T)p.[moe]([m5C])p.[moe]([m5C])[sp].[moe](A)}$$$$ (last 3' nucleoside missing) | 0 score 0-7
RNA1{[moe](G)[sp].[moe](A)[sp].[moe](T)p.[moe]([m5C])p.[moe](T)[sp].d(G)[sp].d(A)[sp].d(A)[sp].d(T)[sp].d([m5C])[sp].d([m5C])[sp].d([m5C])[sp].d(A)[sp].d([m5C])[sp].d(T)[sp].[moe](T)p.[moe]([m5C])p.[moe]([m5C])[sp].[moe]([m5C])}$$$$ (last 3' nucleoside missing) | 0.25 score 0-7
RNA1{[moe](G)[sp].[moe](A)p.[moe](A)p.[moe](G)p.[moe]([m5C])[sp].d(A)[sp].d(T)[sp].d(A)[sp].d(T)[sp].d(T)[sp].d([m5C])[sp].d([m5C])[sp].d(T)[sp].d([m5C])[sp].d(T)[sp].[moe](A)p.[moe](T)p.[moe]([m5C])[sp].[moe]([m5C])}$$$$ (last 3' nucleoside missing) | 0.67 score 0-7
RNA1{[moe](G)[sp].[moe](A)p.[moe](A)p.[moe](G)p.[moe]([m5C])[sp].d(T)[sp].d(T)[sp].d(A)[sp].d([m5C])[sp].d(A)[sp].d(T)[sp].d([m5C])[sp].d(A)[sp].d(T)[sp].d(T)[sp].[moe](T)p.[moe](T)p.[moe]([m5C])[sp].[moe](T)}$$$$ (last 3' nucleoside missing) | 0 score 0-7
RNA1{[moe](G)[sp].[moe](A)p.[moe](A)p.[moe]([m5C])p.[moe](T)[sp].d([m5C])[sp].d(G)[sp].d(A)[sp].d(A)[sp].d([m5C])[sp].d([m5C])[sp].d(A)[sp].d([m5C])[sp].d([m5C])[sp].d(T)[sp].[moe]([m5C])p.[moe](T)p.[moe](T)[sp].[moe]([m5C])}$$$$ (last 3' nucleoside missing) | 1 score 0-7
RNA1{[moe](G)[sp].[moe](A)p.[moe](G)p.[moe](A)p.[moe](T)[sp].d(A)[sp].d([m5C])[sp].d(T)[sp].d(T)[sp].d(G)[sp].d(T)[sp].d([m5C])[sp].d(A)[sp].d(A)[sp].d([m5C])[sp].[moe](G)p.[moe](G)p.[moe]([m5C])[sp].[moe](A)}$$$$ (last 3' nucleoside missing) | 1.67 score 0-7
RNA1{[moe](G)[sp].[moe](A)p.[moe](G)p.[moe](T)p.[moe](A)[sp].d(A)[sp].d(A)[sp].d(T)[sp].d([m5C])[sp].d(A)[sp].d(T)[sp].d(A)[sp].d(A)[sp].d(A)[sp].d(A)[sp].[moe]([m5C])p.[moe](G)p.[moe](G)[sp].[moe](G)}$$$$ (last 3' nucleoside missing) | 2 score 0-7
RNA1{[moe](G)[sp].[moe](A)p.[moe](T)p.[moe]([m5C])p.[moe](T)[sp].d(G)[sp].d(A)[sp].d(A)[sp].d(T)[sp].d([m5C])[sp].d([m5C])[sp].d([m5C])[sp].d(A)[sp].d([m5C])[sp].d(T)[sp].[moe](T)p.[moe]([m5C])p.[moe]([m5C])[sp].[moe]([m5C])}$$$$ (last 3' nucleoside missing) | 0 score 0-7
RNA1{[moe](G)[sp].[moe](A)p.[moe](T)p.[moe]([m5C])p.[moe](T)p.[moe](G)p.d(A)[sp].d(A)[sp].d(T)[sp].d([m5C])[sp].d([m5C])[sp].d([m5C])[sp].d(A)[sp].d([m5C])[sp].d(T)[sp].d(T)[sp].[moe]([m5C])p.[moe]([m5C])[sp].[moe]([m5C])}$$$$ (last 3' nucleoside missing) | 0 score 0-7
RNA1{[moe](G)[sp].[moe](A)p.[moe]([m5C])p.[moe](A)p.[moe](T)[sp].d([m5C])[sp].d(A)[sp].d(T)[sp].d(T)[sp].d(T)[sp].d(A)[sp].d(A)[sp].d(T)[sp].d(T)[sp].d(T)[sp].[moe](G)p.[moe](T)p.[moe](G)[sp].[moe]([m5C])}$$$$ (last 3' nucleoside missing) | 0 score 0-7
RNA1{[moe](G)[sp].[moe](A)p.[moe]([m5C])p.[moe](A)p.[moe]([m5C])[sp].d(T)[sp].d(T)[sp].d(T)[sp].d(T)[sp].d(A)[sp].d(T)[sp].d([m5C])[sp].d(T)[sp].d(T)[sp].d(G)[sp].[moe]([m5C])p.[moe](A)p.[moe]([m5C])[sp].[moe](T)}$$$$ (last 3' nucleoside missing) | 2.33 score 0-7
RNA1{[moe](G)[sp].[moe](G)p.[moe](A)p.[moe](A)p.[moe]([m5C])[sp].d(T)[sp].d([m5C])[sp].d(G)[sp].d(A)[sp].d(A)[sp].d([m5C])[sp].d([m5C])[sp].d(A)[sp].d([m5C])[sp].d([m5C])[sp].[moe](T)p.[moe]([m5C])p.[moe](T)[sp].[moe](T)}$$$$ (last 3' nucleoside missing) | 2.5 score 0-7
RNA1{[moe](G)[sp].[moe](G)p.[moe](T)p.[moe](T)p.[moe](T)[sp].d(A)[sp].d([m5C])[sp].d([m5C])[sp].d(T)[sp].d(T)[sp].d(T)[sp].d(A)[sp].d(A)[sp].d([m5C])[sp].d(A)[sp].[moe](T)p.[moe](T)p.[moe]([m5C])[sp].[moe]([m5C])}$$$$ (last 3' nucleoside missing) | 0.25 score 0-7
RNA1{[moe](G)[sp].[moe](G)p.[moe]([m5C])p.[moe](A)p.[moe](T)[sp].d([m5C])[sp].d(A)[sp].d([m5C])[sp].d(T)[sp].d(T)[sp].d(A)[sp].d([m5C])[sp].d(A)[sp].d(A)[sp].d(A)[sp].[moe]([m5C])p.[moe](T)p.[moe]([m5C])[sp].[moe](A)}$$$$ (last 3' nucleoside missing) | 0.375 score 0-7
RNA1{[moe](G)[sp].[moe](G)p.[moe]([m5C])p.[moe](A)p.[moe](T)[sp].d([m5C])[sp].d(A)[sp].d([m5C])[sp].d(T)[sp].d(T)[sp].d(A)[sp].d([m5C])[sp].d(A)[sp].d(A)[sp].d(A)[sp].[moe]([m5C])p.[moe](T)p.[moe]([m5C])p.[moe](A)}$$$$ (last 3' nucleoside missing) | 0 score 0-7
RNA1{[moe](G)[sp].[moe](G)p.[moe]([m5C])p.[moe](A)p.[moe](T)p.[moe]([m5C])[sp].d(A)[sp].d([m5C])[sp].d(T)[sp].d(T)[sp].d(A)[sp].d([m5C])[sp].d(A)[sp].d(A)[sp].d(A)[sp].d([m5C])[sp].[moe](T)p.[moe]([m5C])[sp].[moe](A)}$$$$ (last 3' nucleoside missing) | 0 score 0-7
RNA1{[moe](G)[sp].[moe](G)p.[moe]([m5C])p.[moe](A)p.[moe](T)p.[moe]([m5C])p.d(A)[sp].d([m5C])[sp].d(T)[sp].d(T)[sp].d(A)[sp].d([m5C])[sp].d(A)[sp].d(A)[sp].d(A)[sp].d([m5C])[sp].[moe](T)p.[moe]([m5C])[sp].[moe](A)}$$$$ (last 3' nucleoside missing) | 0 score 0-7
RNA1{[moe](G)[sp].[moe](T)p.[moe](A)p.[moe](G)p.[moe](G)[sp].d(A)[sp].d(A)[sp].d([m5C])[sp].d(T)[sp].d([m5C])[sp].d(G)[sp].d(A)[sp].d(A)[sp].d([m5C])[sp].d([m5C])[sp].[moe](A)p.[moe]([m5C])p.[moe]([m5C])[sp].[moe](T)}$$$$ (last 3' nucleoside missing) | 2 score 0-7
RNA1{[moe](G)[sp].[moe](T)p.[moe](A)p.[moe](T)p.[moe]([m5C])[sp].d([m5C])[sp].d(T)[sp].d([m5C])[sp].d(T)[sp].d(T)[sp].d(A)[sp].d(A)[sp].d(T)[sp].d(T)[sp].d([m5C])[sp].[moe]([m5C])p.[moe](T)p.[moe](A)[sp].[moe](T)}$$$$ (last 3' nucleoside missing) | 0 score 0-7
RNA1{[moe](G)[sp].[moe](T)p.[moe](A)p.[moe]([m5C])p.[moe](A)[sp].d(T)[sp].d(A)[sp].d(T)[sp].d(T)[sp].d([m5C])[sp].d(A)[sp].d(T)[sp].d(T)[sp].d([m5C])[sp].d(A)[sp].[moe](A)p.[moe](T)p.[moe]([m5C])[sp].[moe](T)}$$$$ (last 3' nucleoside missing) | 0 score 0-7
RNA1{[moe](G)[sp].[moe](T)p.[moe](A)p.[moe]([m5C])p.[moe](T)[sp].d(G)[sp].d(T)[sp].d(T)[sp].d(T)[sp].d([m5C])[sp].d(T)[sp].d(T)[sp].d([m5C])[sp].d(T)[sp].d(T)[sp].[moe]([m5C])p.[moe](A)p.[moe](G)[sp].[moe]([m5C])}$$$$ (last 3' nucleoside missing) | 2 score 0-7
